Assay results reported in ChEMBL document CHEMBL1201862, “PubChem BioAssay data set” (2004).
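These data come from cells grown in 96-well plates and exposed to compound for 48 hours at five concentrations. GI50 = concentration required for 50% inhibition of growth.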 The source made the active and inactive calls. Rule as the data show it: active = GI50 up to about 1.1 µM and inactive = higher.

Key:
Test in all cases: NCI anticancer screen, dose series, 48 h
786-0 = tested on: 786-0
A498 = tested on: A498
A549 = tested on: A549
ACHN = tested on: ACHN
CAKI-1 = tested on: CAKI-1
CCRF-CEM = tested on: CCRF-CEM
COLO 205 = tested on: COLO 205
DMS-114 = tested on: DMS-114
DMS-273 = tested on: DMS-273
EKVX = tested on: EKVX
HCC 2998 = tested on: HCC 2998
HCT-116 = tested on: HCT-116
HCT-15 = tested on: HCT-15
HL-60 = tested on: HL-60
HOP-18 = tested on: HOP-18
HOP-62 = tested on: HOP-62
HOP-92 = tested on: HOP-92
HT-29 = tested on: HT-29
IGROV-1 = tested on: IGROV-1
K562 = tested on: K562
KM-20L2 = tested on: KM-20L2
KM12 = tested on: KM12
LOX IMVI = tested on: LOX IMVI
LXFL 529 = tested on: LXFL 529
M14 = tested on: M14
M19-MEL = tested on: M19-MEL
MOLT-4 = tested on: MOLT-4
Malme-3M = tested on: Malme-3M
NCI-H226 = tested on: NCI-H226
NCI-H23 = tested on: NCI-H23
NCI-H460 = tested on: NCI-H460
NCI-H522 = tested on: NCI-H522
OVCAR-3 = tested on: OVCAR-3
OVCAR-4 = tested on: OVCAR-4
OVCAR-5 = tested on: OVCAR-5
OVCAR-8 = tested on: OVCAR-8
RPMI-8226 = tested on: RPMI-8226
RXF 393 = tested on: RXF 393
SF-268 = tested on: SF-268
SF-295 = tested on: SF-295
SF-539 = tested on: SF-539
SK-MEL-28 = tested on: SK-MEL-28
SK-MEL-2 = tested on: SK-MEL-2
SK-MEL-5 = tested on: SK-MEL-5
SK-OV-3 = tested on: SK-OV-3
SN12C = tested on: SN12C
SNB-19 = tested on: SNB-19
SNB-75 = tested on: SNB-75
SNB-78 = tested on: SNB-78
SR = tested on: SR
SW-620 = tested on: SW-620
TK-10 = tested on: TK-10
U-251 = tested on: U-251
UACC-257 = tested on: UACC-257
UACC-62 = tested on: UACC-62
UO-31 = tested on: UO-31
XF498 = tested on: XF498
DLD-1 = tested on: DLD-1

`Cc1cc(Cl)ccc1NC(=O)C(=O)Cc1ccc([N+](=O)[O-])c([N+](=O)[O-])c1CC(=O)C(=O)Nc1ccc(Cl)cc1C` was tested, and the GI50 (786-0) was > 100 µM (inactive), the GI50 (A498) was > 100 µM (inactive) and the GI50 (A549) was > 100 µM (inactive). The GI50 (ACHN) was > 100 µM (inactive), the GI50 (CAKI-1) was > 100 µM (inactive) and the GI50 (CCRF-CEM) was 78.7 µM (inactive). For the same compound, the GI50 (COLO 205) was 61.1 µM (inactive), the GI50 (DMS-114) was 60.4 µM (inactive) and the GI50 (DMS-273) was > 100 µM (inactive). For the same compound, the GI50 (EKVX) was > 100 µM (inactive), the GI50 (HCC 2998) was > 100 µM (inactive) and the GI50 (HCT-116) was > 100 µM (inactive). For the same compound, the GI50 (HCT-15) was over 100 µM, the GI50 (HL-60) was > 100 µM (inactive) and the GI50 (HOP-18) was > 100 µM (inactive). For the same compound, the GI50 (HOP-62) was > 100 µM (inactive), the GI50 (HOP-92) was 82 µM (inactive) and the GI50 (HT-29) was > 100 µM (inactive). For the same compound, the GI50 (IGROV-1) was > 100 µM (inactive), the GI50 (K562) was > 100 µM (inactive) and the GI50 (KM-20L2) was > 100 µM (inactive). The GI50 (KM12) was > 100 µM (inactive), the GI50 (LOX IMVI) was > 100 µM (inactive) and the GI50 (LXFL 529) was > 100 µM (inactive). The GI50 (M14) was > 100 µM (inactive), the GI50 (M19-MEL) was > 100 µM (inactive) and the GI50 (MOLT-4) was > 100 µM (inactive). For the same compound, the GI50 (Malme-3M) was > 100 µM (inactive), the GI50 (NCI-H226) was > 100 µM (inactive) and the GI50 (NCI-H23) was > 100 µM (inactive). For the same compound, the GI50 (NCI-H460) was > 100 µM (inactive), the GI50 (NCI-H522) was 99.1 µM (inactive) and the GI50 (OVCAR-3) was 70.3 µM (inactive). The GI50 (OVCAR-4) was > 100 µM (inactive), the GI50 (OVCAR-5) was > 100 µM (inactive) and the GI50 (OVCAR-8) was > 100 µM (inactive). For the same compound, the GI50 (RPMI-8226) was > 100 µM (inactive), the GI50 (RXF 393) was > 100 µM (inactive) and the GI50 (SF-268) was > 100 µM (inactive). The GI50 (SF-295) was > 100 µM (inactive), the GI50 (SF-539) was 35 µM (inactive) and the GI50 (SK-MEL-28) was > 100 µM (inactive). The GI50 (SK-MEL-2) was > 100 µM (inactive), the GI50 (SK-MEL-5) was > 100 µM (inactive) and the GI50 (SK-OV-3) was > 100 µM (inactive). The GI50 (SN12C) was > 100 µM (inactive), the GI50 (SNB-19) was > 100 µM (inactive) and the GI50 (SNB-75) was > 100 µM (inactive). The GI50 (SNB-78) was > 100 µM (inactive), the GI50 (SR) was 42.1 µM (inactive) and the GI50 (SW-620) was > 100 µM (inactive). The GI50 (TK-10) was > 100 µM (inactive), the GI50 (U-251) was > 100 µM (inactive) and the GI50 (UACC-257) was > 100 µM (inactive). The GI50 (UACC-62) was > 100 µM (inactive), the GI50 (UO-31) was > 100 µM (inactive) and the GI50 (XF498) was > 100 µM (inactive).

For `CN1NC(c2ccccc2)=C(C#N)C(=O)CC1c1ccc(Br)cc1` (stereo not given), the GI50 (A498) was 40.4 µM (inactive), the GI50 (A549) was 32.2 µM (inactive) and the GI50 (ACHN) was 34 µM (inactive). For the same compound, the GI50 (CAKI-1) was 41.9 µM (inactive), the GI50 (DLD-1) was 26.1 µM (inactive) and the GI50 (HCC 2998) was 34.5 µM (inactive). The GI50 (HCT-116) was 36.8 µM (inactive), the GI50 (HCT-15) was 24.3 µM and the GI50 (HL-60) was 29 µM (inactive). For the same compound, the GI50 (HOP-18) was 17.9 µM (inactive), the GI50 (HOP-62) was 21.4 µM (inactive) and the GI50 (HOP-92) was 35.2 µM (inactive). The GI50 (HT-29) was 28.9 µM (inactive), the GI50 (KM-20L2) was > 10 µM (inactive) and the GI50 (KM12) was 25.2 µM (inactive). For the same compound, the GI50 (LOX IMVI) was 35.4 µM (inactive), the GI50 (LXFL 529) was 35.7 µM (inactive) and the GI50 (M14) was 20.9 µM (inactive). The GI50 (Malme-3M) was 23.3 µM (inactive), the GI50 (NCI-H226) was 0.123 µM (active) and the GI50 (NCI-H23) was 56.4 µM (inactive). For the same compound, the GI50 (NCI-H460) was 33.3 µM (inactive), the GI50 (NCI-H522) was 22.3 µM (inactive) and the GI50 (OVCAR-4) was 45.6 µM (inactive). For the same compound, the GI50 (OVCAR-5) was 25.5 µM (inactive), the GI50 (RPMI-8226) was 37.8 µM (inactive) and the GI50 (RXF 393) was 36.6 µM (inactive). For the same compound, the GI50 (SF-268) was 35.9 µM (inactive), the GI50 (SF-295) was 11.9 µM (inactive) and the GI50 (SK-MEL-28) was 48 µM (inactive). For the same compound, the GI50 (SK-MEL-2) was 28.3 µM (inactive), the GI50 (SK-MEL-5) was 14.2 µM (inactive) and the GI50 (SK-OV-3) was 31.8 µM (inactive). For the same compound, the GI50 (SN12C) was 44.9 µM (inactive), the GI50 (SNB-19) was 28.8 µM (inactive) and the GI50 (SNB-75) was 16.6 µM (inactive). For the same compound, the GI50 (SNB-78) was 48.8 µM (inactive), the GI50 (SR) was 36.2 µM (inactive) and the GI50 (SW-620) was 25.6 µM (inactive). For the same compound, the GI50 (TK-10) was 75.3 µM (inactive), the GI50 (U-251) was > 10 µM (inactive) and the GI50 (UACC-257) was 69.5 µM (inactive). The GI50 (XF498) was 28.6 µM (inactive).

`COc1cc(/C=C/C(=O)C(C)(C)C)cc(OC)c1OC` was tested, and the GI50 (786-0) was 53.7 µM (inactive), the GI50 (A549) was 32.2 µM (inactive) and the GI50 (ACHN) was 39.7 µM (inactive). For the same compound, the GI50 (CAKI-1) was 50.1 µM (inactive), the GI50 (CCRF-CEM) was 33.2 µM (inactive) and the GI50 (COLO 205) was 40 µM (inactive). The GI50 (DLD-1) was 37.9 µM (inactive), the GI50 (DMS-114) was 25.6 µM (inactive) and the GI50 (DMS-273) was 40.1 µM (inactive). For the same compound, the GI50 (EKVX) was 45.7 µM (inactive), the GI50 (HCC 2998) was 48.2 µM (inactive) and the GI50 (HCT-116) was 29.9 µM (inactive). For the same compound, the GI50 (HCT-15) was 61.8 µM, the GI50 (HL-60) was 21.1 µM (inactive) and the GI50 (HOP-18) was > 100 µM (inactive). For the same compound, the GI50 (HOP-62) was > 100 µM (inactive), the GI50 (HOP-92) was 41.1 µM (inactive) and the GI50 (HT-29) was 38 µM (inactive). The GI50 (K562) was 37.6 µM (inactive), the GI50 (KM-20L2) was 51.1 µM (inactive) and the GI50 (KM12) was 24.8 µM (inactive). The GI50 (LOX IMVI) was 19.7 µM (inactive), the GI50 (LXFL 529) was 22.8 µM (inactive) and the GI50 (M14) was 33.3 µM (inactive). For the same compound, the GI50 (M19-MEL) was 31.8 µM (inactive), the GI50 (MOLT-4) was 32.8 µM (inactive) and the GI50 (Malme-3M) was 71.8 µM (inactive). The GI50 (NCI-H226) was 33.6 µM (inactive), the GI50 (NCI-H23) was 29.9 µM (inactive) and the GI50 (NCI-H460) was 25.5 µM (inactive). The GI50 (NCI-H522) was 29 µM (inactive), the GI50 (OVCAR-3) was 37.2 µM (inactive) and the GI50 (OVCAR-4) was 14.8 µM (inactive). The GI50 (OVCAR-5) was > 100 µM (inactive), the GI50 (OVCAR-8) was 33.4 µM (inactive) and the GI50 (RPMI-8226) was 34.3 µM (inactive). The GI50 (RXF 393) was 28.4 µM (inactive), the GI50 (SF-268) was 33.9 µM (inactive) and the GI50 (SF-295) was 38.9 µM (inactive). The GI50 (SF-539) was 33.3 µM (inactive), the GI50 (SK-MEL-28) was 63 µM (inactive) and the GI50 (SK-MEL-2) was 32.7 µM (inactive). The GI50 (SK-MEL-5) was 42.3 µM (inactive), the GI50 (SK-OV-3) was 29.8 µM (inactive) and the GI50 (SN12C) was 34.3 µM (inactive). For the same compound, the GI50 (SNB-19) was > 100 µM (inactive), the GI50 (SNB-75) was 25.9 µM (inactive) and the GI50 (SR) was 30.2 µM (inactive). The GI50 (SW-620) was 32.7 µM (inactive), the GI50 (TK-10) was > 100 µM (inactive) and the GI50 (U-251) was 37.8 µM (inactive). The GI50 (UACC-257) was 28.1 µM (inactive), the GI50 (UACC-62) was 36.9 µM (inactive) and the GI50 (UO-31) was > 100 µM (inactive). The GI50 (XF498) was 82 µM (inactive).
